Experimental data published in the NIST ThermoML archive (doi:10.1007/s10765-007-0223-x).
Numbers after ± are expanded uncertainties.

Assay: xn = mol fraction of the nth substance listed
Details: 101 kPa, Liquid; for speed of sound: Single path-length method

CCc1ccccc1 [ethylbenzene] + COC(C)(C)C
Details	mass density [kg/m3]	speed of sound [m/s]
288.15 K, x2 = 0	871.245 ± 0.36	1360.7 ± 2.1
288.15 K, x2 = 0.046	866.075 ± 0.39	1348.3 ± 2.1
288.15 K, x2 = 0.106	859.155 ± 0.4	1334.4 ± 2.1
288.15 K, x2 = 0.212	846.925 ± 0.42	1307.2 ± 2.1
288.15 K, x2 = 0.299	836.536 ± 0.43	1284.6 ± 2.1
288.15 K, x2 = 0.402	823.953 ± 0.45	1256.7 ± 2.1
288.15 K, x2 = 0.503	812.763 ± 0.47	1231.4 ± 2.1
288.15 K, x2 = 0.6	799.067 ± 0.49	1201.3 ± 2.1
288.15 K, x2 = 0.701	785.93 ± 0.51	1171.9 ± 2.1
288.15 K, x2 = 0.822	769.744 ± 0.53	1136.2 ± 2.1
288.15 K, x2 = 0.899	759.058 ± 0.55	1112.7 ± 2.1
288.15 K, x2 = 0.948	752.102 ± 0.56	1097.3 ± 2.1
290.65 K, x2 = 0	869.052 ± 0.37	1349.9 ± 2.1
290.65 K, x2 = 0.046	863.868 ± 0.39	1337.6 ± 2.1
290.65 K, x2 = 0.106	856.925 ± 0.4	1323.4 ± 2.1
290.65 K, x2 = 0.212	844.671 ± 0.42	1296.3 ± 2.1
290.65 K, x2 = 0.299	834.249 ± 0.44	1273.7 ± 2.1
290.65 K, x2 = 0.402	821.631 ± 0.45	1245.6 ± 2.1
290.65 K, x2 = 0.503	810.408 ± 0.47	1220.2 ± 2.1
290.65 K, x2 = 0.6	796.665 ± 0.49	1190.1 ± 2.1
290.65 K, x2 = 0.701	783.488 ± 0.51	1160.5 ± 2.1
290.65 K, x2 = 0.822	767.243 ± 0.54	1124.5 ± 2.1
290.65 K, x2 = 0.899	756.516 ± 0.55	1100.7 ± 2.1
290.65 K, x2 = 0.948	749.532 ± 0.56	1085.4 ± 2.1
293.15 K, x2 = 0	866.856 ± 0.37	1339.4 ± 2.1
293.15 K, x2 = 0.046	861.653 ± 0.4	1326.8 ± 2.1
293.15 K, x2 = 0.106	854.698 ± 0.41	1312.7 ± 2.1
293.15 K, x2 = 0.212	842.406 ± 0.42	1285.5 ± 2.1
293.15 K, x2 = 0.299	831.951 ± 0.44	1262.8 ± 2.1
293.15 K, x2 = 0.402	819.3 ± 0.46	1234.6 ± 2.1
293.15 K, x2 = 0.503	808.048 ± 0.47	1209.2 ± 2.1
293.15 K, x2 = 0.6	794.26 ± 0.5	1179 ± 2.1
293.15 K, x2 = 0.701	781.04 ± 0.52	1149.3 ± 2.1
293.15 K, x2 = 0.822	764.736 ± 0.54	1113.2 ± 2.1
293.15 K, x2 = 0.899	753.964 ± 0.56	1089.2 ± 2.1
293.15 K, x2 = 0.948	746.956 ± 0.57	1073.8 ± 2.1
295.65 K, x2 = 0	864.66 ± 0.37	1328.9 ± 2.1
295.65 K, x2 = 0.046	859.445 ± 0.4	1316.3 ± 2.1
295.65 K, x2 = 0.106	852.469 ± 0.41	1302 ± 2.1
295.65 K, x2 = 0.212	840.144 ± 0.43	1274.8 ± 2.1
295.65 K, x2 = 0.299	829.658 ± 0.44	1252 ± 2.1
295.65 K, x2 = 0.402	816.97 ± 0.46	1223.7 ± 2.1
295.65 K, x2 = 0.503	805.684 ± 0.48	1198.2 ± 2.1
295.65 K, x2 = 0.6	791.851 ± 0.5	1167.8 ± 2.1
295.65 K, x2 = 0.701	778.587 ± 0.52	1138.1 ± 2.1
295.65 K, x2 = 0.822	762.221 ± 0.54	1101.8 ± 2.1
295.65 K, x2 = 0.899	751.405 ± 0.56	1077.7 ± 2.1
295.65 K, x2 = 0.948	744.369 ± 0.57	1062.3 ± 2.1
298.15 K, x2 = 0	862.459 ± 0.38	1318.4 ± 2.1
298.15 K, x2 = 0.046	857.231 ± 0.4	1306 ± 2.1
298.15 K, x2 = 0.106	850.237 ± 0.41	1291.4 ± 2.1
298.15 K, x2 = 0.212	837.881 ± 0.43	1264.1 ± 2.1
298.15 K, x2 = 0.299	827.364 ± 0.45	1241.2 ± 2.1
298.15 K, x2 = 0.402	814.636 ± 0.46	1212.7 ± 2.1
298.15 K, x2 = 0.503	803.312 ± 0.48	1187.3 ± 2.1
298.15 K, x2 = 0.6	789.435 ± 0.51	1156.8 ± 2.1
298.15 K, x2 = 0.701	776.124 ± 0.52	1127 ± 2.1
298.15 K, x2 = 0.822	759.695 ± 0.55	1090.5 ± 2.1
298.15 K, x2 = 0.899	748.835 ± 0.56	1066.3 ± 2.1
298.15 K, x2 = 0.948	741.772 ± 0.57	1050.8 ± 2.1
300.65 K, x2 = 0	860.256 ± 0.38	1307.9 ± 2.1
300.65 K, x2 = 0.046	855.014 ± 0.41	1295.8 ± 2.1
300.65 K, x2 = 0.106	848.001 ± 0.42	1280.9 ± 2.1
300.65 K, x2 = 0.212	835.613 ± 0.43	1253.5 ± 2.1
300.65 K, x2 = 0.299	825.064 ± 0.45	1230.5 ± 2.1
300.65 K, x2 = 0.402	812.278 ± 0.47	1201.5 ± 2.1
300.65 K, x2 = 0.503	800.937 ± 0.49	1176.4 ± 2.1
300.65 K, x2 = 0.6	787.011 ± 0.51	1145.7 ± 2.1
300.65 K, x2 = 0.701	773.654 ± 0.53	1115.9 ± 2.1
300.65 K, x2 = 0.822	757.162 ± 0.55	1079.2 ± 2.1
300.65 K, x2 = 0.899	746.257 ± 0.57	1054.9 ± 2.1
300.65 K, x2 = 0.948	739.163 ± 0.58	1039.4 ± 2.1
303.15 K, x2 = 0	858.047 ± 0.38	1297.5 ± 2.1
303.15 K, x2 = 0.046	852.795 ± 0.41	1285.5 ± 2.1
303.15 K, x2 = 0.106	845.762 ± 0.42	1270.4 ± 2.1
303.15 K, x2 = 0.212	833.338 ± 0.44	1242.9 ± 2.1
303.15 K, x2 = 0.299	822.758 ± 0.45	1219.8 ± 2.1
303.15 K, x2 = 0.402	809.93 ± 0.47	1190.7 ± 2.1
303.15 K, x2 = 0.503	798.555 ± 0.49	1165.5 ± 2.1
303.15 K, x2 = 0.6	784.554 ± 0.51	1134.2 ± 2.1
303.15 K, x2 = 0.701	771.175 ± 0.53	1104.8 ± 2.1
303.15 K, x2 = 0.822	754.617 ± 0.56	1068 ± 2.1
303.15 K, x2 = 0.899	743.666 ± 0.57	1043.6 ± 2.1
303.15 K, x2 = 0.948	736.543 ± 0.58	1028 ± 2.1
305.65 K, x2 = 0	–	1287.1 ± 2.1
305.65 K, x2 = 0.046	–	1275.2 ± 2.1
305.65 K, x2 = 0.106	–	1260 ± 2.1
305.65 K, x2 = 0.212	–	1232.4 ± 2.1
305.65 K, x2 = 0.299	–	1209.2 ± 2.1
305.65 K, x2 = 0.402	–	1180 ± 2.1
305.65 K, x2 = 0.503	–	1154.7 ± 2.1
305.65 K, x2 = 0.6	–	1123.2 ± 2.1
305.65 K, x2 = 0.701	–	1093.7 ± 2.1
305.65 K, x2 = 0.822	–	1056.8 ± 2.1
305.65 K, x2 = 0.899	–	1032.3 ± 2.1
305.65 K, x2 = 0.948	–	1016.6 ± 2.1
